# Test results: US20240101528A1, “SUBSTITUTED PYRAZOLO PIPERIDINE CARBOXYLIC ACIDS” (BAYER AKTIENGESELLSCHAFT, priority 2020, published 2024)
# pEC50: −log10 of the molar value. Structures can show the parent of a compound that is named as a salt.
# Assays:
# [1] = target: T1, recombinant guanylate cyclase reporter cell line (Rattus norvegicus, UniProt P20595); assay: Effect on a recombinant guanylate cyclase reporter cell line; format: cell-based; conditions: for MEC: minimum effective concentration
# T1 construct: expressed in transfected cells
# T1 sequence (P20595 1-619): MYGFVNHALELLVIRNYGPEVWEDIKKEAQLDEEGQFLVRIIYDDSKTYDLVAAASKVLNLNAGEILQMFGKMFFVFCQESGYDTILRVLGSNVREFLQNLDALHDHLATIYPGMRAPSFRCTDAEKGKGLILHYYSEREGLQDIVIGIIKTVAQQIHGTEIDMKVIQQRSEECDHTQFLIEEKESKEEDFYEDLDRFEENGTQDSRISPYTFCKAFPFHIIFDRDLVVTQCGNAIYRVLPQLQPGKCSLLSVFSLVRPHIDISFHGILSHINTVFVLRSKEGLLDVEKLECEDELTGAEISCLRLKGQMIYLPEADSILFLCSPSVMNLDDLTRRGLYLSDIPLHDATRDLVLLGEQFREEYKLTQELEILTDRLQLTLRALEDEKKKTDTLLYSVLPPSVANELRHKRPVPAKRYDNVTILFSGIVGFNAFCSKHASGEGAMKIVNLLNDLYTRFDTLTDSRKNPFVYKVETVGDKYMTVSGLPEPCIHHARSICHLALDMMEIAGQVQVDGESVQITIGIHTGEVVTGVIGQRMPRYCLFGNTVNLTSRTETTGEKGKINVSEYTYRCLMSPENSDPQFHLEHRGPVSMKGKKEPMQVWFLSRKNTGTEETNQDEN
# T1 sequence (P19686 1-690 partner): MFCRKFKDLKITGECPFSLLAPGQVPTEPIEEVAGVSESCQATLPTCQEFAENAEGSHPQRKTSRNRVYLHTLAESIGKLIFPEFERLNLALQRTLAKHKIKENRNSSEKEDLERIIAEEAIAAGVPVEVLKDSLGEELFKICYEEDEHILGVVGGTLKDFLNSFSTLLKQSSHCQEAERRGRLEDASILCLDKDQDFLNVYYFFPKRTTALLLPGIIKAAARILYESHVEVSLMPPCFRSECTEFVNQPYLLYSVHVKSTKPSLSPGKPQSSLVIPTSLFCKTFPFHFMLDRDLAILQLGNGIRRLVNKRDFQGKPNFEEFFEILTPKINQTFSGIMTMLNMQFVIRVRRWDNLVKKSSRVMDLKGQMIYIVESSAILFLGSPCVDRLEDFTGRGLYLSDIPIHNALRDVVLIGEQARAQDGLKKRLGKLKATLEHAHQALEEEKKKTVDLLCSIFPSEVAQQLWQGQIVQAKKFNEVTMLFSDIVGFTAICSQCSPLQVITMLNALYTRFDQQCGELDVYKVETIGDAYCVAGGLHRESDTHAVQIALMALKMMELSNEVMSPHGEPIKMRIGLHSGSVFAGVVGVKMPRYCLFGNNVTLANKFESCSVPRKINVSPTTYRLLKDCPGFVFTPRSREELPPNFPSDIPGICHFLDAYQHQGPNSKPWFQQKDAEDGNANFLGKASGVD
# Method: B-1. Effect on a Recombinant Guanylate Cyclase Reporter Cell Line
# The cellular activity of the compounds according to the invention was determined using a recombinant guanylate cyclase reporter cell line, as described in F. Wunder et al., Anal. Biochem. 339, 104-112 (2005).
# [2] = Pharmacokinetic parameters following intravenous administration in rats; format: in vivo, male Wistar rats
# Method: (§1) B-5. Determination of Pharmacokinetic Parameters Following Intravenous and Oral Administration
# (§2) The pharmacokinetic parameters of the compounds according to the invention were determined in male Wistar rats and/or in female beagles and/or in cynomolgus monkeys and/or in male CD-1 mice. Intravenous administration in the case of mice and rats was carried out by means of a species-specific plasma/DMSO formulation, and in the case of dogs and monkeys by means of a water/PEG400/ethanol formulation. In all species, oral administration of the dissolved substance was performed via gavage, based on a water/PEG400/ethanol formulation.
# (§3) An internal standard (which may also be a chemically unrelated substance) was added to the samples of the compounds of the invention, calibration samples and qualifiers, and there followed protein precipitation by means of acetonitrile in excess. Addition of a buffer solution matched to the LC conditions, and subsequent vortexing, was followed by centrifugation at 1000 g. The supernatant was analysed by LC-MS/MS using C18 reversed-phase columns and variable mobile phase mixtures. The substances were quantified via the peak heights or areas from extracted ion chromatograms of specific selected ion monitoring experiments.
# (§4) The plasma concentration/time plots determined were used to calculate the pharmacokinetic parameters such as AUC, Cmax, t1/2 (terminal half-life), F (bioavailability), MRT (mean residence time) and CL (clearance), by means of a validated pharmacokinetic calculation program.
# (§5) Since the substance quantification was performed in plasma, it was necessary to determine the blood/plasma distribution of the substance in order to be able to adjust the pharmacokinetic parameters correspondingly. For this purpose, a defined amount of substance was incubated in K3 EDTA whole blood of the species in question in a rocking roller mixer for 20 min. After centrifugation at 1000 g, the plasma concentration was measured (by means of LC-MS/MS; see above) and determined by calculating the ratio of the Cblood/Cplasma value.
# [3] = Pharmacokinetic parameters following oral administration in rats; format: in vivo, male Wistar rats; conditions: for F: bioavailability
# Method: as §1, §2, §3, §4, §5
SMILES,MEC [1] [nM],Half live in comparison to example 174 in WO 2012/058132 ([2]; after i.v. application),mean residence time (MRT) in comparison to example 174 in WO 2012/058132 ([2]; after i.v. application),AUCnorm ([2]; intravenous administration) [kg·h/L],AUCnorm [3] [kg·h/L],F [3] [%],pEC50 ([1]; half maximal effective concentration),"MRT ([2]; male, Wistar, rat, plasma, intravenous administration) [h]","clearance ([2]; male, Wistar, rat, plasma, intravenous administration, read-out: CLplasma (converted)) [mL/min/kg]","half-life ([2]; male, Wistar, rat, plasma, intravenous administration, read-out: t½ (converted)) [h]","MRT ([3]; male, Wistar, rat, plasma, read-out: MRT) [h]","half-life ([3]; male, Wistar, rat, plasma, read-out: t½ (converted)) [h]"
"O=C(O)c1cnn(C2CCCN(c3cc(Cl)ccc3-c3ccc(N4CCN(CC(F)(F)F)CC4)cc3)C2)c1C(F)F (single isomer, unassigned; enantiomer 1) [Example 20, 1-[1-[5-Chloro-2-[4-[4-(2,2,2-trifluoroethyl)piperazin-1-yl]phenyl]phenyl]-3-piperidyl]-5-(difluoromethyl)pyrazole-4-carboxylic acid (Enantiomer 1)]",1.6,longer,longer,2.29,2.11,91.7,,,,,,
"CCCN1CCN(c2ccc(-c3ccc(Cl)cc3N3CCCC(n4ncc(C(=O)O)c4C(F)F)C3)cc2)CC1 (single isomer, unassigned; enantiomer 2) [Example 5, 1-{1-[4-Chloro-4′-(4-propylpiperazin-1-yl)[biphenyl]-2-yl]piperidin-3-yl}-5-(difluoromethyl)-1H-pyrazole-4-carboxylic acid hydrochloride (Enantiomer 2)]",0.3,,,1.40,0.84,59.9,,,,,,
"O=C(O)c1cnn(C2CCCN(c3cc(Cl)ccc3-c3ccc(N4CCN(CC5CC5)CC4)cc3)C2)c1C(F)F (single isomer, unassigned; enantiomer 2) [Example 11, 1-(1-{4-Chloro-4′-[4-(cyclopropylmethyl)piperazin-1-yl] [biphenyl]-2-yl}piperidin-3-yl)-5-(difluoromethyl)-1H-pyrazole-4-carboxylic acid hydrochloride (Enantiomer 2)]",<0.3,,,1.23,0.70,58.2,,,,,,
"O=C(O)c1cnn(C2CCCN(c3cc(Cl)ccc3-c3ccc(N4CCN(CC(F)F)CC4)cc3)C2)c1C(F)F (single isomer, unassigned; enantiomer 2) [Example 19, 1-[1-{4-Chloro-4′-[4-(2,2-difluoroethyl)piperazin-1-yl][biphenyl]-2-yl}piperidin-3-yl]-5-(difluoromethyl)-1H-pyrazole-4-carboxylic acid hydrochloride (Enantiomer 2)]",0.3,,,3.09,0.25,8.01,8.72,5.66,5.33,4.24,7.46,4.65
